Drawing on ChEMBL document CHEMBL1129248, “7-[3-(1-piperidinyl)propoxy]chromenones as potential atypical antipsychotics” (1996), this text covers ED50 and inhibition in vivo for 13 compounds.

The structures appear in SMILES notation.

The species named for experiment [1] is Rattus norvegicus. Put plainly: Dose required to induce 50% maximum catalepsy in rat. The format is functional.
Experiment [2] relates to Rattus norvegicus. Put plainly: Inhibition of apomorphine-induced stereotypy in Rat, after peroral administration. The following applies: po. The format is functional.
The subject of experiment [3] is Mus musculus. Put plainly: Inhibition of apomorphine-induced hyperactivity in mice, after peroral administration. The conditions noted are these: po.
A short description of experiment [4]: (§1) Inhibition of apomorphine-induced climbing behavior in mice, after Intraperitoneal administration. The format is functional. The following applies: Mus musculus, ip.
The nature of experiment [5]: Inhibition of apomorphine-induced climbing behavior in mice, after intraperitoneal administration. The format is functional. The following applies: Mus musculus, ip.
Experiment [6] deals with Mus musculus. Put plainly: Inhibition of apomorphine-induced climbing behavior in mice, after peroral administration. It is filed as functional. The conditions noted are these: po.
Experiment [7] relates to Mus musculus. Put plainly: Inhibition of apomorphine-induced Hyperactivity in mice, after Intraperitoneal administration. It is filed as functional. The conditions noted are these: ip.
Experiment [8] can be described thus: Inhibition of apomorphine-induced hyperactivity in mice after peroral administration. It is filed as functional. The conditions noted are these: Mus musculus, po.
Experiment [9] concerns Rattus norvegicus. Put plainly: Percent inhibition of apomorphine-induced stereotypy in rat after an intraperitoneal dose of 50 mg/kg. The format is functional. The following applies: ip.
The test system of experiment [10] is Mus musculus. As to the kind of experiment: Inhibition of apomorphine-induced hyperactivity in mice, after peroral administration. The conditions noted are these: po. The format is functional.
The test system of experiment [11] is Rattus norvegicus. Put plainly: Dose required to induce 50% maximum catalepsy in rat administered perorally. It is filed as functional. The following applies: po.
Experiment [12] deals with Rattus norvegicus. As to the kind of experiment: Inhibition of apomorphine-induced stereotypy in rat, after peroral administration. The format is functional. The conditions noted are these: po.
A short description of experiment [13]: Inhibition of apomorphine-induced hyperactivity behavior in mice, after peroral administration. The format is functional. The conditions noted are these: Mus musculus, po.
Experiment [14] is filed under the species Rattus norvegicus. Put plainly: Dose required to induce 50% maximum catalepsy in rat.
Experiment [15] relates to Mus musculus. The experiment is described as §1. The conditions noted are these: ip. The format is functional.
The test system of experiment [16] is Rattus norvegicus. As to the kind of experiment: Inhibition of apomorphine-induced stereotypy in rat after peroral administration. It is filed as functional. The following applies: po.

For orientation: ED50 means the dose at which the effect has come halfway, by size or by number of responders. A low value points to greater potency. In general, inhibition in vivo refers to how much of the control response was suppressed. A lower inhibition in vivo goes with a response near the control.

For `O=C(CCCN1CCC(O)(c2ccc(Cl)cc2)CC1)c1ccc(F)cc1` [HALOPERIDOL], the ED50 in the experiment listed under Rattus norvegicus [1] was found to be 2.5 mg/kg; in the experiment with Rattus norvegicus [2] it was 1.95 mg/kg; in the experiment with Mus musculus [3], 0.56 mg/kg; in [4] it was 0.21 mg/kg.
As for `CC1CN(Cc2ccc(F)cc2)CCN1CCCC(O)c1ccc(F)cc1` (configuration not stated), the 50% effective dose (ED50) is 30 mg/kg in experiment [5], over 200 mg/kg with Mus musculus [6], 50 mg/kg in the experiment with Mus musculus [7] and over 200 mg/kg in [8]. The compound also displayed an inhibition in vivo at 50 mg/kg in the experiment on Rattus norvegicus [9] of 48%.
Turning to `CC1CN(C(=O)c2ccc(F)cc2)CCN1CCCC(O)c1ccc(F)cc1` (configuration not stated), the ED50 in experiment [5] was over 50 mg/kg; with Mus musculus [6] it was over 200 mg/kg; in the experiment with Mus musculus [7], over 50 mg/kg; in experiment [8], over 200 mg/kg. For the same compound, the inhibition in vivo at 50 mg/kg in the experiment with Rattus norvegicus [9] amounted to 0%.
Take `CC1CN(Cc2ccccc2)CCN1CCCC(=O)c1ccc(F)cc1` (configuration not stated): the ED50 in [5] was 28.2 mg/kg; with Mus musculus [10], over 200 mg/kg; with Mus musculus [6], over 200 mg/kg; in the experiment with Mus musculus [7], 30 mg/kg. The inhibition in vivo at 50 mg/kg with Rattus norvegicus [9] is 30%.
For the compound `O=C(c1ccc(F)cc1)C1CCN(CCCOc2ccc(F)cc2)CC1`, the 50% effective dose (ED50) worked out at 4.3 mg/kg in the experiment on Mus musculus [6], 1.15 mg/kg in the experiment on Mus musculus [7], 4.9 mg/kg in experiment [8] and 1.82 mg/kg in experiment [4].
With `CCN1CCC[C@H]1CNC(=O)c1c(OC)ccc(Br)c1OC` [REMOXIPRIDE], the median effective dose (ED50) in experiment [5] is 5.2 mg/kg; in the experiment with Rattus norvegicus [11], 64.3 mg/kg; in the experiment on Rattus norvegicus [12] it was 48.7 mg/kg; in experiment [13], 11.1 mg/kg.
Take `O=C(c1ccc(F)cc1)C1CCN(CCCOc2ccc3c(=O)c(CO)coc3c2)CC1`: the ED50 in the experiment on Rattus norvegicus [11] was determined as 14 mg/kg; in the experiment on Rattus norvegicus [12], 35.9 mg/kg; in experiment [13], 1.32 mg/kg.
With `CC1CN(Cc2ccccc2)CCN1CCCC(O)c1ccc(F)cc1` (configuration not stated), the ED50 in [5] was over 50 mg/kg; in the experiment with Mus musculus [6], over 200 mg/kg; with Mus musculus [7], 35 mg/kg; in experiment [8], over 200 mg/kg. This compound also gave an inhibition in vivo at 50 mg/kg in the experiment on Rattus norvegicus [9] of 16%.
Take `CC1CN(Cc2ccc(F)cc2)CCN1CCCC(=O)c1ccc(F)cc1` (configuration not stated): the 50% effective dose (ED50) was over 50 mg/kg in experiment [5], over 200 mg/kg in the experiment on Mus musculus [6], 45 mg/kg in the experiment on Mus musculus [7] and over 200 mg/kg in experiment [8]. The same compound showed an inhibition in vivo at 50 mg/kg in the experiment on Rattus norvegicus [9] of 19%.
As to `O=C(CCCN1CCC(Cc2ccccc2)CC1)c1ccc(F)cc1`, the ED50 is 2.85 mg/kg in experiment [5], 15.2 mg/kg in the experiment on Mus musculus [6] and 12.3 mg/kg in the experiment with Mus musculus [7]. Further, in the experiment with Rattus norvegicus [9], testing at 50 mg/kg gave an inhibition in vivo of 46%.
As to `CC1CN(C(=O)c2ccc(F)cc2)CCN1CCCC(=O)c1ccc(F)cc1` (configuration not stated), the median effective dose (ED50) is over 50 mg/kg in [5], over 200 mg/kg in the experiment on Mus musculus [6], over 50 mg/kg with Mus musculus [7] and over 200 mg/kg in experiment [8]. This compound gave an inhibition in vivo at 50 mg/kg in the experiment on Rattus norvegicus [9] of 22%.
With `Cc1nc2n(c(=O)c1CCN1CCC(c3noc4cc(F)ccc34)CC1)CCCC2` [RISPERIDONE], the ED50 was found to be 0.74 mg/kg in the experiment on Mus musculus [6], 3.8 mg/kg in the experiment on Rattus norvegicus [2], 5 mg/kg in the experiment filed under Rattus norvegicus [14] and 0.2 mg/kg in the experiment on Mus musculus [15].
Consider `CN1CCN(C2=Nc3cc(Cl)ccc3Nc3ccccc32)CC1` [CLOZAPINE], for which the ED50 in the experiment listed under Rattus norvegicus [1] was found to be 107 mg/kg; in the experiment with Rattus norvegicus [16] it was 85.3 mg/kg; with Mus musculus [3] it was 11 mg/kg; in experiment [4], 7.7 mg/kg.
